From patent publication US12590062B2, “PD-1/PD-L1 inhibitors” (Gilead Sciences, Inc., priority 2017, dated 2026)

What was measured:
PD-1/PD-L1 = PD-1/PD-L1 (Homo sapiens, UniProt Q9NZQ7); test: PD-1/PD-L1 biochemical protein-protein interaction assay (ALPHA); type: binding; conditions: 0.3 nM His tagged PD-L1, 2.5 nM biotinylated Fc-PD-1, 60 minutes at 25° C., read-out: IC50 PD-L1-PD-1 Alpha IC50-mono PD-L1-fcP-D1
Protocol: Biological Activity PD-1/PD-L1 & CTLA/CD80 Biochemical Protein-Protein Interaction Assay
Compounds were tested in biochemical protein-protein interaction assays to determine if they can specifically block the interaction between the extracellular domains of PD-1/PD-L1 or CTLA/CD80. Binding of the protein pairs is measured using a bead based Amplified Luminescent Proximity Homogeneous Assay (ALPHA) platform. Binding of each protein pair results in proximity of the donor and acceptor beads which leads to an increase in ALPHA signal. Disruption of the protein-protein interaction with a test compound results in a decrease in ALPHA signal. Assays are performed in 25 mM Hepes (pH 7.4), 150 mM NaCl, 3.4 mM EDTA, 0.005% Tween 20, and 0.01% BSA. Final protein concentration in the assays were 0.3 nM (His tagged PD-L1), 2.5 nM (biotinylated Fc-PD-1), 1 nM (His tagged CTLA4) and 1 nM (biotinylated CD80). After an assay reaction time of 60 minutes at 25° C., binding was measured with addition of 20 μg/mL ALPHA assay acceptor beads (anti-His coated) and […] ALPHA assay donor beads (streptavidin coated). IC50 values were calculated from the fit of the dose-response curves to a four-parameter equation. Representative data are shown below in Table 1.

PD-1/PD-L1 interaction = target: T1, PD-1/PD-L1 interaction (Homo sapiens, UniProt Q9NZQ7); test: PD-1/PD-L1 NFAT reporter co-culture assay; type: cell-based; conditions: Jurkat PD-1 NFAT-luciferase cells co-cultured with aAPC-PD-L1 CHO cells, 6 hrs at 37° C.; read-out: EC50 NFAT Luciferase
T1 construct: expressed in transfected cells; host or cells: CHO cells (aAPC-PD-L1) co-cultured with Jurkat cells overexpressing PD-1 and an NFAT-luciferase reporter
Procedure, shortened: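 Jurkat cells overexpressing PD-1 with NFAT-luciferase mixed with compounds and plated onto CHO aAPCs expressing anti-CD3 and PD-L1, RPMI with 2% FBS. Co-culture 6 h at 37 °C; luminescence read with ONE-Glo. EC50 from four-parameter fit.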

T1 sequence (Q9NZQ7 19-290): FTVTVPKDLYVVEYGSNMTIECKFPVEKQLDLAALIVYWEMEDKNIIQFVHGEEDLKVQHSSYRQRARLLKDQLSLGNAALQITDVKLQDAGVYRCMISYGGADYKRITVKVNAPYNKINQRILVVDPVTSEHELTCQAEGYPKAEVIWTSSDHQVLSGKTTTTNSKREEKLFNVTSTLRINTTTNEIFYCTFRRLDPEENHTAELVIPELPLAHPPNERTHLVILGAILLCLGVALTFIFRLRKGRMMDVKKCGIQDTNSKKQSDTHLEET
Sequence of PD-1/PD-L1 (Q9NZQ7 19-238 limits assumed): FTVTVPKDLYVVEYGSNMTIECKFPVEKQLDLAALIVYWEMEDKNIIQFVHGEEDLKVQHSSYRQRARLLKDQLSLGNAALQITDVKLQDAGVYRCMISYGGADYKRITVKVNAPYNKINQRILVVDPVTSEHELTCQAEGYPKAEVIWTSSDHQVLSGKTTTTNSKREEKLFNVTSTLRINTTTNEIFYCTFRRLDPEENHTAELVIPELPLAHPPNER

| SMILES | IC50 (PD-1/PD-L1) [nM] | EC50 (PD-1/PD-L1 interaction) [nM] |
| --- | --- | --- |
| COc1nc(OCc2cccc(-c3cccc(COc4ccc(CNC[C@@H](C)O)c(OC)n4)c3C)c2C)ccc1CNC[C@@H](C)O [Example 24, (2R,2′R)-1,1′-((((((2,2′-dimethyl-[1,1′-biphenyl]-3,3′-diyl)bis(methylene))bis(oxy))bis(2-methoxypyridine-6,3-diyl))bis(methylene))bis(azanediyl))bis(propan-2-ol)] | 41.7 | 1890 |
| N#Cc1cncc(COc2cc(OCc3cccc(-c4cccc(COc5cc(OCc6cncc(C#N)c6)c(CNCCO)cc5Cl)c4)c3)c(Cl)cc2CNCCO)c1 [Example 25, 5,5′-((((([1,1′-biphenyl]-3,3′-diylbis(methylene))bis(oxy))bis(4-chloro-6-(((2-hydroxyethyl)amino)methyl)-3,1-phenylene))bis(oxy))bis(methylene))dinicotinonitrile] | 20.9 | 3760 |
| COc1nc(OCc2cccc(-c3cccc(COc4ccc(CN5C[C@@H](O)CC5=O)c(OC)n4)c3C)c2C)ccc1CNC[C@@H](O)CC(=O)O [Example 26, (S)-3-hydroxy-4-(((6-((3′-(((5-(((S)-4-hydroxy-2-oxopyrrolidin-1-yl)methyl)-6-methoxypyridin-2-yl)oxy)methyl)-2,2′-dimethyl-[1,1′-biphenyl]-3-y)methoxy)-2-methoxypyridin-3-yl)methyl)amino)butanoic acid] | 16.2 | 18900 |
| COc1cc(OCc2cccc(-c3cccc(COc4ccc(CNC[C@@H](O)CC(=O)O)c(OC)n4)c3C)c2C)ccc1CNC[C@@H](O)CC(=O)O [Example 27, (S)-4-(((6-((3′-((4-((((S)-3-carboxy-2-hydroxypropyl)amino)methyl)-3-methoxyphenoxy)methyl)-2,2′-dimethyl-[1,1′-biphenyl]-3-yl)methoxy)-2-methoxypyridin-3-yl)methyl)amino)-3-hydroxybutanoic acid] | 2.3 | 25300 |
| Cc1c(COc2cc(OCCN3CCOCC3)c(CNCCO)cc2Cl)cccc1-c1cccc(COc2cc(OCCN3CCOCC3)c(CNCCO)cc2Cl)c1C [Example 28, 2,2′-((((((2,2′-dimethyl-[1,1′-biphenyl]-3,3′-diyl)bis(methylene))bis(oxy))bis(5-chloro-2-(2-morpholinoethoxy)-4,1-phenylene))bis(methylene))bis(azanediyl))bis(ethan-1-ol)] | 12.7 | 663 |
| Cc1c(COc2cc(OCc3cncc(C#N)c3)c(CNC[C@@H](O)CC(=O)O)cc2Br)cccc1-c1cccc(COc2cc(OCc3cncc(C#N)c3)c(CNC[C@@H](O)CC(=O)O)cc2Br)c1C [Example 33, (3S,3′S)-4,4′-((((((2,2′-dimethyl-[1,1′-biphenyl]-3,3′-diyl)bis(methylene))bis(oxy))bis(5-bromo-2-((5-cyanopyridin-3-yl)methoxy)-4,1-phenylene))bis(methylene))bis(azanediyl))bis(3-hydroxybutanoic acid)] | 0.4 | 322 |
| C=Cc1cc(CNCCO)c(OCc2cncc(C#N)c2)cc1OCc1cccc(-c2cccc(COc3cc(OCc4cncc(C#N)c4)c(CNCCO)cc3C=C)c2C)c1C [Example 36, 5,5′-((((((2,2′-dimethyl-[1,1′-biphenyl]-3,3′-diyl)bis(methylene))bis(oxy))bis(6-(((2-hydroxyethyl)amino)methyl)-4-vinyl-3,1-phenylene))bis(oxy))bis(methylene))dinicotinonitrile] | 21.6 | 1070 |
| Cc1c(COc2cc(OCc3cncc(C#N)c3)c(CNC[C@@H](O)CC(=O)O)cc2Br)cccc1-c1cccc(COc2cc(OCc3cncc(C#N)c3)c(CN3C[C@@H](O)CC3=O)cc2Br)c1C [Example 38, (S)-4-((5-bromo-4-((3′-((2-bromo-5-((5-cyanopyridin-3-yl)methoxy)-4-(((S)-4-hydroxy-2-oxopyrrolidin-1-yl)methyl)phenoxy)methyl)-2,2′-dimethyl-[1,1′-biphenyl]-3-yl)methoxy)-2-((5-cyanopyridin-3-yl)methoxy)benzyl)amino)-3-hydroxybutanoic acid] | 2.8 | 2670 |
| Cc1c(COc2nc(OCc3cncc(S(C)(=O)=O)c3)c(CN[C@](C)(CO)C(=O)O)cc2Br)cccc1-c1cccc(COc2nc(OCc3cncc(S(C)(=O)=O)c3)c(CN[C@](C)(CO)C(=O)O)cc2Br)c1C [Example 40, (2R,2′R)-2,2′-((((((2,2′-dimethyl-[1,1′-biphenyl]-3,3′-diyl)bis(methylene))bis(oxy))bis(5-bromo-2-((5-(methylsulfonyl)pyridin-3-yl)methoxy)pyridine-6,3-diyl))bis(methylene))bis(azanediyl))bis(3-hydroxy-2-methylpropanoic acid)] | 0.1 | 176 |
| Cc1c(COc2cc(OCc3cncc(C#N)c3)c(CN3C[C@@H](O)C[C@H]3C(=O)O)cc2Cl)cccc1-c1cccc(COc2cc(OCc3cncc(C#N)c3)c(CN3C[C@@H](O)C[C@H]3C(=O)O)cc2Cl)c1C [Example 58, (2S,2′S,4S,4'S)-1,1′-(((((2,2′-dimethyl-[1,1′-biphenyl]-3,3′-diyl)bis(methylene))bis(oxy))bis(5-chloro-2-((5-cyanopyridin-3-yl)methoxy)-4,1-phenylene))bis(methylene))bis(4-hydroxypyrrolidine-2-carboxylic acid)] | 0.3 | 822 |
| COc1nc(OCc2cccc(-c3cccc(COc4nc(OC)c(CN5CC[C@H]5C(=O)O)cc4Br)c3C)c2C)c(Br)cc1CN1CC[C@H]1C(=O)O [Example 59, (2S,2′S)-1,1′-(((((2,2′-dimethyl-[1,1′-biphenyl]-3,3′-diyl)bis(methylene))bis(oxy))bis(5-bromo-2-methoxypyridine-6,3-diyl))bis(methylene))bis(azetidine-2-carboxylic acid)] | 0.1 | 1250 |
| COc1nc(OCc2cccc(-c3cccc(COc4nc(OC)c(CN5CC[C@H]5C(=O)O)cc4Br)c3C)c2C)ccc1CN1CC[C@H]1C(=O)O [Example 60, (S)-1-((6-((3′-(((3-bromo-5-(((S)-2-carboxyazetidin-1-yl)methyl)-6-methoxypyridin-2-yl)oxy)methyl)-2,2′-dimethyl-[1,1′-biphenyl]-3-yl)methoxy)-2-methoxypyridin-3-yl)methyl)azetidine-2-carboxylic acid] | 2.3 | ≥ 50000 |
| Cc1c(COc2cc(O)c(CNC[C@@H](O)CC(=O)O)cc2Cl)cccc1-c1cccc(COc2cc(OCc3cncc(C#N)c3)c(CNC[C@@H](O)CC(=O)O)cc2Cl)c1C [Example 67, (S)-4-((4-((3′-((4-((((S)-3-carboxy-2-hydroxypropyl)amino)methyl)-2-chloro-5-((5-cyanopyridin-3-yl)methoxy)phenoxy)methyl)-2,2′-dimethyl-[1,1′-biphenyl]-3-yl)methoxy)-5-chloro-2-hydroxybenzyl)amino)-3-hydroxybutanoic acid] | 1 | 1320 |
| Cc1c(COc2ccc(CNCCO)cc2)cccc1-c1cccc(COc2cc(OCc3cncc(C#N)c3)c(CNCCO)cc2Cl)c1C [Example 69, 5-((4-chloro-2-(((2-hydroxyethyl)amino)methyl)-5-((3′-((4-(((2-hydroxyethyl)amino)methyl)phenoxy)methyl)-2,2′-dimethyl-[1,1′-biphenyl]-3-yl)methoxy)phenoxy)methyl)nicotinonitrile] | 14.2 | 1740 |
| CC(=O)NCCNCc1cc(Cl)c(OCc2cccc(-c3cccc(COc4cc(OCc5cncc(C#N)c5)c(CNCCNC(C)=O)cc4Cl)c3C)c2C)cc1OCc1cncc(C#N)c1 [Example 70, N,N′-(((((((2,2′-dimethyl-[1,1′-biphenyl]-3,3′-diyl)bis(methylene))bis(oxy))bis(5-chloro-2-((5-cyanopyridin-3-yl)methoxy)-4,1-phenylene))bis(methylene))bis(azanediyl))bis(ethane-2,1-diyl))diacetamide] | 10.6 | 902 |
| Cc1c(COc2ccc(CNCCO)cc2Cl)cccc1-c1cccc(COc2cc(OCc3cncc(C#N)c3)c(CNCCO)cc2Cl)c1C [Example 71, 5-((4-chloro-5-((3′-((2-chloro-4-(((2-hydroxyethyl)amino)methyl)phenoxy)methyl)-2,2′-dimethyl-[1,1′-biphenyl]-3-yl)methoxy)-2-(((2-hydroxyethyl)amino)methyl)phenoxy)methyl)nicotinonitrile] | 26.5 | 1030 |
| COc1nc(OCc2cccc(-c3cccc(COc4ccc(CNCCO)c(OC)n4)c3C#N)c2C)ccc1CNCCO [Example 72, 3,3′-bis(((5-(((2-hydroxyethyl)amino)methyl)-6-methoxypyridin-2-yl)oxy)methyl)-2′-methyl-[1,1′-biphenyl]-2-carbonitrile] | 8 | 2510 |
